Measured values published in US8058309B2, “Protein kinase modulators and therapeutic uses thereof” (Novotyr Therapeutics Ltd., priority 2006, dated 2011).
Entries after “also recorded” stand apart in the source; their conditions may differ.

How the values were obtained:
IRS1 [1] = assay: IRS1 Ser-phosphorylation and IRS1 levels in MCF7 cells; type: cell-based; details: breast cancer MCF7 cells
Procedure: (§1) Tyrosine autophosphorylation of the β-subunit of IGF1R as well as downstream signaling induced by IGF1R were assayed in breast cancer MCF7 cells. Tyrosine autophosphorylation of the EGFR and the EGFR signaling was assayed in prostate cancer PC3 cells. Tyrosine autophosphorylation of the PDGFR and its signaling was assayed in fibroblasts overexpres sing PDGFR. Tyro sine autophosphorylation of the IR and its signaling was assayed in fibroblasts overexpressing IR. Cells were seeded in 6-well plates (MCF7-250,000 cells/well, PC3-150,000 cells/well, fibroblasts-140,000 cells/well) and 24 hours later medium was replaced by serum-free medium (DMEM supplemented with 100 units/ml penicillin and 100 μg/ml streptomycin). Following 20 hours of serum-starvation medium was replaced with medium containing various concentrations of the inhibitors in 0.1% DMSO for additional 4 hours. Cells were then stimulated for 5 min with 50 ng/ml IGF-1 (MCF7 cells), 20 ng/ml EGF (PC3 cells), 50 ng/ml PDGF (fibroblasts overexpressing PDGFR) or 100 nM insulin (fibroblasts overexpressing IR), washed twice with PBS and lysed by boiling sample buffer (10% glycerol, 50 mM Tris-HCl, pH 6.8, 3% SDS, and 5%, β-mercaptoethanol). Equal amounts of protein per lane were separated by 8% SDS-PAGE and transferred to a nitrocellulose membrane (Sartorius AG). Phosphorylated proteins were immunoblotted with anti-phospho-IGF1R (phosphor-IGF1R), anti-phosphotyrosine-IRS1 (phospho-IRS1), anti-phospho(T308)Akt (phospho-PKB), anti-phospho-Erk (phospho-ERK), anti-phosphotyrosine 4G10&PY20 (pY-EGFR or pY-PDGFR), anti-phospho-Ser^636/639-IRS1 (pS^636/639-IRS1) and anti-phospho-STAT3 (phospho-STAT3) antibodies. Detection was performed with horseradish peroxidase-conjugated secondary antibody using the ECL system. Blots were then stripped of antibodies, blocked with TBST with 5% low fat milk and re-probed with antibodies detecting both the phosphorylated and the non-phosphorylated corresponding proteins e.g. IGF1Rβ, IRS1, PKB, ERK, IRβ, PDGFR and Stat3.
(§2) In addition, lysates were prepared from cells exposed to inhibitors at various concentrations for 24 hours in the presence or the absence of FCS without stimulation. Lysate preparation and western blot were the same as described above. Apoptosis was detected by immunoblotting with rabbit anti-PARP antibodies.

IGF1R [2] = molecular target: T1, IGF1R (Homo sapiens, UniProt P08069); assay: IGF1R cellular free kinase assay (pGT substrate phosphorylation); type: biochemical; details: partially purified IGF1R; 20 μM ATP; read-out: IC50 values of IGF1R activity in cellular free kinase assay
T1 construct: made in house
Procedure: The general protein-tyrosine kinase substrate, poly(Glu,Tyr) 4:1 (pGT), was coated onto a 96-well Maxisorp plates (Nunc) by adding 125 μl of 0.1 mg/ml pGT in PBS to each well. Plates were sealed and incubated for 16 hours at 37° C., washed once with TBST (10 mM Tris-HCl, pH 7.5, 50 mM NaCl, and 0.1% Triton X-100) and once with DDW, dried for 2-3 hours, and stored at 4° C. […] The plate was then washed with TBS with 0.2% Tween 20 (TBST) and blocked with 0.5% BSA in TBST. Mouse monoclonal anti-phosphotyrosine antibody, conjugated to Horse radish peroxidase (PT-66, 1:50000) was added to the plate. Following incubation for 45 min at room temperature, the plate was washed repeatedly with TBST. Detection was carried out with a color reagent, 2,2′-azido-bis-3-ethylbenzithiazoline-6-sulfonic acid, in citrate-phosphate buffer, pH 4.0, with 0.004% H2O2 for 10 min and monitored at 405 nm, all at room temperature. IC50 values of inhibitors were calculated using the REGRESSION program. The assay was optimized with respect to the amount of IGF-1R (partially purified from cells overexpressing IGF1R), reaction time, and ATP concentration. The signal was linear for 30 min in the range of IGF1R protein concentrations up to 35 ng/well.

IRS1 [3] = assay: IRS1 Ser-phosphorylation in YUMAC cells; type: cell-based, human; details: metastatic melanoma YUMAC cells
Procedure: as §2

YUMAC = assay: Proliferation assay YUMAC; type: cell-based; details: Homo sapiens; Table 4; 72 hours incubation; read-out: Inhibition of human metastatic melanoma cells, YUMAC IC50
Procedure: (§3) Various cancer cell lines (listed in table 1) were plated at a density of 1000-5000 cells/well in 96-well plates in 90111 growth medium containing 10% FCS, 100 units/ml penicillin and 100 μg/ml streptomycin. Inhibitors were added a day later in 10 μl of 1% DMSO in DDW to obtain final concentrations of 0, 0.1, 0.3, 1, 3, and 10 μM. The final concentration of DMSO (0.1% DMSO) was kept constant in all samples. Medium with inhibitors was refreshed a day and two days later. Following exposure of the cells to the inhibitors for 72 hours at 37° C., the cells were fixed in 0.5% gluteraldehyde in medium for 10 min, washed three times with DDW, once with 0.1M sodium borate buffer pH 8.5 and stained with 1% methylene blue dissolved in 0.1M borate buffer solution for 60 min. Excess dye was washed out and cell-bound dye was eluted with 200 μl/well of 0.1 M HCl. The optical density value was read at 620 nm in ELISA plate reader. The data was analyzed in Microsoft Excel, using the vehicle control as 100% proliferation. The assays were performed in triplicates. The values in table 1 represent IC50 values derived from the dose-dependent growth curves obtained.
(§4) Compounds 6, 7, 8, and 9 were tested for their inhibitory potential in cell proliferation assay. In this assay cells were exposed to increasing concentrations of the molecules (at 0.1% DMSO in all wells) a day after seeding. Medium and inhibitors were refreshed every day, and following three days of treatment, cells were fixed and stained with methylene-Blue. IC50 values were determined from the curves of the optical density against compound concentration. The assay was performed in triplicates.

YURIF = assay: Proliferation assay YURIF; type: cell-based; details: Homo sapiens; Table 4; 72 hours incubation; read-out: Inhibition of human metastatic melanoma cells, YURIF IC50
Procedure: as §3, §4

[4] = system: metastatic melanoma YUMAC cells; assay: Apoptosis (cleaved PARP) in YUMAC cells; type: cell-based, human; details: 24 hours of exposure, 3 μM
Procedure: as §2

IGF1R [5] = molecular target: T1, IGF1R; assay: Inhibition of IGF1-induced signaling in intact MCF7 cells (western blot); type: cell-based; details: 4 h exposure, IGF1 stimulation
Procedure: as §1

T1 sequence (P08069 31-1367, species assumed): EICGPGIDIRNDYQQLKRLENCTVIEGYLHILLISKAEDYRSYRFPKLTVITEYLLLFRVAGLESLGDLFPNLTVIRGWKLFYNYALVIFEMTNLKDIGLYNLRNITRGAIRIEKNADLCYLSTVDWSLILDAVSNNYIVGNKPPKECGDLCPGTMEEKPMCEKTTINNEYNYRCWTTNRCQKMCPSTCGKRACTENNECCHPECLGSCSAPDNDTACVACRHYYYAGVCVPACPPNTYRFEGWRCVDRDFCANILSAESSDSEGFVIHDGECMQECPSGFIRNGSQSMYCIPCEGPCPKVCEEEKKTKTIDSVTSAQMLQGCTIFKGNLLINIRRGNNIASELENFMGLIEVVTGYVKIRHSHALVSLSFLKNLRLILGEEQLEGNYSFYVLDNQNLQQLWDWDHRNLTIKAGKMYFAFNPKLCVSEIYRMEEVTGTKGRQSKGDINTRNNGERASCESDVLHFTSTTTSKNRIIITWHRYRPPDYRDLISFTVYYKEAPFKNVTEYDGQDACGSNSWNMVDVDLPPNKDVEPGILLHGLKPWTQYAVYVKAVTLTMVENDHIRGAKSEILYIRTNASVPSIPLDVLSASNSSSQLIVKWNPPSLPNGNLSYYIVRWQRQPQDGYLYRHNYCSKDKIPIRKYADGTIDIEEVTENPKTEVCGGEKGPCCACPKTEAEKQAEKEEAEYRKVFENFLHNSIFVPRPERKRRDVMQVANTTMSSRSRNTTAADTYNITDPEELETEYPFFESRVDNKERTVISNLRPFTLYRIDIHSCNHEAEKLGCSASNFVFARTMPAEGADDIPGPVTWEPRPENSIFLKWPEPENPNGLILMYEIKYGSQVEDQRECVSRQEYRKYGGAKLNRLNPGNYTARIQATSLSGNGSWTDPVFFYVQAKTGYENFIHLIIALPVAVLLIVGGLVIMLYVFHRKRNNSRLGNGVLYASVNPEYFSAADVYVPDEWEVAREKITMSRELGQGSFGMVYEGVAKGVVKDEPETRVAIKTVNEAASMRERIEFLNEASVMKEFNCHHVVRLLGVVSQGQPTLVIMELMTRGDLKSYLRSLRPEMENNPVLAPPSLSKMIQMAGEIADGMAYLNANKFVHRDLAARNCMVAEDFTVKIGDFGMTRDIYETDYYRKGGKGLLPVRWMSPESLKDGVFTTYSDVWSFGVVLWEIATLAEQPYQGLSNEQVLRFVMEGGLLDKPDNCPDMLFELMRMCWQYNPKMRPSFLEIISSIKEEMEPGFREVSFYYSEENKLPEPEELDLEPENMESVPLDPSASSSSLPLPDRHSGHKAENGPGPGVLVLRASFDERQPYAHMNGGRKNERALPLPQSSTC

Structure (SMILES)	IC50 (IGF1R [2]) [nM]	Inhibition of IGF1R autophosphorylation and IGF1-induced signaling (IRS1 pTyr, Akt/PKB, MAPK/ERK) (IGF1R [5])	IRS1 Ser-phosphorylation (IRS1 [1])	IRS1 Ser-phosphorylation (IRS1 [3])	IC50 (YUMAC) [nM]	IC50 (YURIF) [nM]	Cleavage of PARP (apoptosis) [4]
N#C/C(=C\c1cc(O)c(O)c(Cl)c1)C(=S)NCc1cc(O)c(O)c(O)c1 [Compound 11]	30 to 200		trigger IRS1-ser phosphorylation	trigger IRS1-ser phosphorylation	1200	1200	
N#C/C(=C\c1cc(O)c(O)c(F)c1)C(=S)NCc1cc(O)c(O)c(O)c1 [Compound 12]	169						
N#C/C(=C\c1cc(O)c(O)c(C(F)(F)F)c1)C(=S)NCc1cc(O)c(O)c(O)c1 [Compound 13]	68		trigger IRS1-ser phosphorylation	trigger IRS1-ser phosphorylation; also recorded: detected	1000	870	detected
N#C/C(=C\c1cc(O)c(O)c(I)c1)C(=S)NCc1ccc(O)c(O)c1 [Compound 16]	193						
N#C/C(=C\c1cc(O)c(O)c(O)c1)C(=S)NCc1cc(O)c(O)c(Br)c1 [Compound 17]	49				> 10000	> 10000	
Oc1cc(/C=C/C(=S)NCc2cc(O)c(O)c(Br)c2)cc(Br)c1O [Compound 18]	196						

More lines, main results first:

IC50 (IGF1R [2]) [nM]	Inhibition of IGF1R autophosphorylation and IGF1-induced signaling (IRS1 pTyr, Akt/PKB, MAPK/ERK) (IGF1R [5])	Structure (SMILES)	IRS1 Ser-phosphorylation (IRS1 [1])	IRS1 Ser-phosphorylation (IRS1 [3])	IC50 (YUMAC) [nM]	IC50 (YURIF) [nM]	Cleavage of PARP (apoptosis) [4]
33		Oc1cc(CNC(=S)/C=C/c2cc(O)c(O)c(I)c2)cc(O)c1O [Compound 10]	trigger IRS1-ser phosphorylation	trigger IRS1-ser phosphorylation; also recorded: detected	300	470	detected
115		N#C/C(=C\c1cc(O)c(O)c(Br)c1)C(=S)NCc1ccc(O)c(O)c1 [Compound 15]					
700		N#C/C(=C\c1cccc(Br)c1)C(=S)NCc1cc(O)c(O)c(O)c1 [Compound 19]			~10000	> 10000	
	had no effect on the signaling	N#C/C(=C\c1ccc2oc(=S)[nH]c2c1)C(=O)c1ccc(O)c(O)c1 [Compound 20, reference compound]					
